Source: patent US5206428A, “Tetrahydronaphthalene derivatives and preparation thereof” (Tanabe Seiyaku Co., Ltd., priority 1989, dated 1993)
Converted amounts (≈) assume the structure as drawn.

Tested on: U-46619-induced platelet aggregation
Assay: U-46619-induced platelet aggregation-inhibiting activity (in vitro)
Type: cell-based
Conditions: human platelet-rich plasma, 4×10^5 cells/mm^3, U-46619 solution (0.2 μg/ml), 37° C., Born's method
Protocol: The bottom layer was further centrifuged to give platelet-poor plasma ("PPP") as the supernatant. PRP was diluted with PPP so that the platelet count was 4×10^5 cells/mm^3. 25 μl of a test compound solution was added to 200 μl of said diluted PRP.

| Compound | IC50 [µg/mL] |
| --- | --- |
| Cc1ccc(S(=O)(=O)NC2CCc3cc(CC(=O)NCCC(=O)O)ccc3C2)cc1 (stereo not drawn) [Compound No. 1] | 0.2 (≈ 0.465 µM) |
| O=C([O-])Cc1ccc2c(c1)CCC(NS(=O)(=O)c1ccc(Cl)cc1)C2.[Na+] (stereo not drawn) [Compound No. 2, Sodium 6(4-chlorophenyl)sulfonylamino-5,6,7,8-tetrahydronaphthalene-2-acetate] | 0.06 |
| O=C(O)CCCNC(=O)Cc1ccc2c(c1)CCC(NS(=O)(=O)c1ccc(Cl)cc1)C2 (stereo not drawn) [Compound No. 3] | 0.7 (≈ 1.51 µM) |
